The structures appear in SMILES notation. Where two headings read alike, the source gives them in different places. Where only a bound is given, the exact number is not on record here.

The test system of series [1] is L. infantum intramacrophage amastigotes. Put plainly: In vitro antileishmanial evaluation on intramacrophage amastigotes (Giemsa counting in RAW 264.7). In kind it is cell-based, Leishmania infantum. To be noted: for Selectivity Index: CC50/IC50 on intramacrophage amastigotes; for IC50: Leishmania infantum, RAW264.7, RAW 264.7 macrophages, 48 h treatment, read-out: L. infantum Intramacrophage Amastigotes IC50 (µM) ± SD. As for the experimental part: Concerning the evaluation on intramacrophage amastigotes, the determination of the cytotoxicity as presented above was necessary to use the highest drug concentrations to be studied on the intramacrophage amastigote model. RAW 264.7 macrophages were plated in 16-well Lab-Tek chamber slides (Thermo-FisherVillebon-sur-Yvette, France) at a density of 2 × 10^4 cells per well and incubated for 24 h at 37 °C with 5% CO2. […] After 24 h of infection at 37 °C with 5% CO2, extracellular parasites were removed, and DMEM complete medium (100 µL) containing two-fold serial dilutions of the compounds, from 100 µM to 0.049 µM, was added to each well. A positive control treated with 1% DMSO was added to each Lab-tek chamber-slide. After 48 h of treatment, the medium was removed and cells were fixed in methanol for 1 min, stained in 10% Giemsa (Merck) for 5 min, and further rinsed in water before observation in phase contrast at the microscope (Olympus CX31; Olympus, Rungis, France). The number of amastigotes was counted by two independent experimenters for a total of 300 macrophages per well and the ratio of amastigotes per macrophage was determined for each condition. This ratio was further compared with the one of the positive control, considered as 100%, to determine a percentage of inhibition (% I), as follows: % I = 100 − ((ratio of amastigotes per macrophage in treated cells/ratio of amastigotes per macrophages in untreated cells) × 100). The activity of the compounds was expressed as IC50, which was determined by nonlinear regression using GraphPad Prism 7.0. […] In vitro antileishmanial evaluations were performed in triplicate in three independent experiments.

Series [2] is described as follows: In vitro cytotoxicity on RAW 264.7 macrophages (resazurin). In kind it is cell-based. The conditions noted are these: mouse, 48 h incubation, read-out: Cytotoxicity on RAW 264.7 CC50 (µM) ± SD. As for the experimental part:
The RAW 264.7 macrophages (ATCC) were cultured at 37 °C with 5% CO2 in DMEM complete medium containing Dulbecco′s Modified Eagle′s Medium (DMEM, Invitrogen, Thermo-Fisher, Villebon-sur-Yvette, France) supplemented with penicillin-streptomycin (100 U/mL; Invitrogen), and heat-inactivated fetal bovine serum (10%; HIFBS).
Cytotoxicity was evaluated on RAW 264.7 macrophages. Cells were plated in 96-well microplates at a density of 2 × 10^4 cells per well. After an incubation of 24 h at 37 °C with 5% CO2, the medium was removed in each well, and 100 µL of DMEM complete medium containing two-fold serial dilutions of the compounds, from 100 µM to 0.049 µM, was added to each well. After 48 h of incubation at 37 °C with 5% CO2, 10 µL of resazurin (450 µM) was added to each well, and further incubated in the dark for 4 h at 37 °C with 5% CO2. In living cells, resazurin is reduced in resorufin, and this conversion is monitored by measuring OD570nm (resorufin) and OD600nm (resazurin; multimode microplate reader Spark®, Tecan, Lyon, France). […] In vitro cytotoxicity assays were performed in triplicate in three independent experiments.

Series [3] has as its system L. infantum axenic amastigotes. The experiment in a line: In vitro antileishmanial evaluation on axenic amastigotes (resazurin). In kind it is cell-based, Leishmania infantum. The conditions noted are these: 72 h incubation, read-out: L. infantum Axenic Amastigotes IC50 (µM) ± SD. On the procedure:
Promastigotes of Leishmania infantum (MHOM/FR/2008/LEM5700) were cultured in the dark at 26 °C with 5% CO2 in M199 complete medium containing M199 medium supplemented with adenosine (100 µM), hemin (0.5 mg/L), Hepes (40 mM) pH 7.4, and heat inactivated foetal bovine serum (10%; HIFBS). Cultures of axenic amastigotes of L. infantum were adapted from. Briefly, axenic amastigotes of L. infantum were obtained from late log promastigotes diluted at 1 × 10^6/mL in M199 complete medium acidified at pH 5.5 and cultured at 37 °C with 5% CO2.
The evaluations of activity on axenic amastigotes were adapted from the protocols previously described. Briefly, two-fold serial dilutions of the compounds, from 100 µM to 0.049 µM, were performed in 100 µL of complete medium (see above) in 96-well microplates. Axenic amastigotes were then added to each well at a density of 10^6/mL in a 200 µL final volume. After 72 h of incubation at 37 °C with 5% CO2, 20 µL of resazurin (450 µM) was added to each well and further incubated in the dark for 24 h at 37 °C with 5% CO2. Cell viability was then monitored as described above. The activity of the compounds was expressed as IC50, which was determined by nonlinear regression using GraphPad Prism 7.0.

A further series concerns the target T1, hGDP-MP (Homo sapiens, UniProt Q9Y5P6).
T1 construct: His; made in house; host or cells: E. coli
The experiment in a line: Enzyme inhibition assay on purified recombinant hGDP-MP (malachite green). In kind it is biochemical. The conditions noted are these: 37 °C, 20 min, read-out: hGDP-MP IC50 (µM) ± SD. The text has this:
(§1) Recombinant His6 tagged GDP-MP from L. infantum (LiGDP-MP) was produced in E. coli and purified using Ni-nitrilotriacetic acid (Ni-NTA) and size exclusion chromatography Hiload^TM16/60 Superdex^TM 200 column as previously described for LdGDP-MP [12]. Recombinant His-tagged GDP-MP from human (hGDP-MP) was produced in E. coli and purified using a Mono-Q anion exchange column followed by a Hiload^TM 16/60 Superdex^TM 200 column as previously described.
(§2) Enzyme activities of both LiGDP-MP and hGDP-MP were measured at 37 °C for 20 min in 384 well plates in a 20-µL reaction containing 50 mM Tris-HCl pH 7.5, 5 mM MgCl2, 100 µM Mannose-1-phosphate, 100 µM GTP, 1 mM DTT, 0.1 U/mL inorganic pyrophosphatase (Sigma-Aldrich, Saint-Quentin-Fallavier, France) and 2 ng/µL of recombinant GDP-MP [12, 29]. The reaction was initiated by the addition of GDP-MP, and was stopped after adding 20 µL of revelation buffer containing malachite green (0.03% w/v), ammonium molybdate (0.2% w/v) and Triton X-100 (0.05% v/v) in HCl (0.7 M) for 5 min at 37 °C. The quantity of inorganic phosphate generated, representing GDP-MP activity, was determined by measuring OD650nm with a spectrometer plate reader Polar Omega (BMG LabTech, Champigny-sur-Marne, France).
(§3) To evaluate compounds on purified GDP-MPs, enzyme activities were measured as described above in the presence of 100 µg/mL of natural products originating from a chemical library from ICSN (Institut de Chimie des Substances Naturelles, Gif-sur-Yvette). The inhibitors were added in the reaction mix, before the addition of GDP-MP. The percentage of inhibition was then calculated in reference to untreated enzyme. The statistical parameter (Z-factor) was calculated to validate the quality of the HTS assays as described previously. As a control, compounds were evaluated in parallel in the same conditions on inorganic pyrophosphatase alone in order to discard false-positives. […] The IC50 were determined by nonlinear regression using GraphPad Prism 7.0 and further converted in µM in order to normalize units in Table 1. Enzyme inhibition assays were performed in triplicate in three independent experiments.

For another series, the target named is LiGDP-MP (Leishmania infantum, UniProt A4I048). Put plainly: Enzyme inhibition assay on purified recombinant LiGDP-MP (malachite green). In kind it is biochemical.
Sequence of LiGDP-MP (A4I048 entry or part of it): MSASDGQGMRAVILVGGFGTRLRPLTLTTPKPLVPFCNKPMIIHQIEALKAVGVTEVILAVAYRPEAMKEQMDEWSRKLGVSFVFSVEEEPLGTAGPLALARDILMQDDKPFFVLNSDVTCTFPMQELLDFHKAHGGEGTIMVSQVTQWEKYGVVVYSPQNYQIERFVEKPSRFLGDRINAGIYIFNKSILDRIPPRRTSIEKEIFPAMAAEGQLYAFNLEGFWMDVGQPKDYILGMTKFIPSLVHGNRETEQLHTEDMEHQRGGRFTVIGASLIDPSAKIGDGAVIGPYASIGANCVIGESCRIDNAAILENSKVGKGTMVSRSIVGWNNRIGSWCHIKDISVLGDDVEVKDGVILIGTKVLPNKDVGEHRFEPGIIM
Text: as §1, §2, §3

Setting [4] is: purified recombinant enzyme, 37 °C, 20 min, read-out: LiGDP-MP IC50 (µM) ± SD.

T1 sequence (Q9Y5P6 whole entry): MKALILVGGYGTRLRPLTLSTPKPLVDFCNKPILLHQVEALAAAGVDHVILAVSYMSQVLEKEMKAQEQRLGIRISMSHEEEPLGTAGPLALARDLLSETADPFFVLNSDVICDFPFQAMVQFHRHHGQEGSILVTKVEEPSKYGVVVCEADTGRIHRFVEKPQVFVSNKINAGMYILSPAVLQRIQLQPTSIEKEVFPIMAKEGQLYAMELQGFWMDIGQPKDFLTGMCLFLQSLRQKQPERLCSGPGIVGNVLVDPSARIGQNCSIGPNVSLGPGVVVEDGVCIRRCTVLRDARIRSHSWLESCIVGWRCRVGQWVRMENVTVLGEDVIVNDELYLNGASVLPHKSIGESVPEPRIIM

With `COc1cc(O)cc(CCCCCCC/C=C\CCCCCCCc2cc(O)cc(O)c2)c1` [compound 1, (8′Z)-1-hydroxy-3-methoxy-5-[16′-(3′′,5′′-dihydroxy-phenyl)-8′-hexadecen-1′-yl]benzene], the “Selectivity Index” value in series [1] is below 0.7. Also, the IC50 in series [1] was above 50 µM; in series [3] it was 78.9 ± 3.1 µM; in series [3] (Leishmania infantum, 72 h), above 50 µM; on hGDP-MP it was 1.3 ± 0.2 µM. Besides, the CC50 at 48 h in series [2] was 34.4 ± 1.5 µM.

With `COc1cc(O)cc(CCCCCCCCCCCCCCCCc2cc(O)cc(O)c2)c1` [compound 2, 1-hydroxy-3-methoxy-5-[16′-(3′′,5′′-dihydroxyphenyl)-hexadecanyl]benzene], the IC50 at LiGDP-MP (setting [4]) was determined as 5.9 ± 3.5 µM; at hGDP-MP, 13.7 ± 14.2 µM.

For the molecule `CCCC/C=C\CCCCCc1cccc(O)c1C(=O)O` [compound 4, Khookerianic acid B], in series [1], the “Selectivity Index” value is on record as below 0.8. Also, the IC50 in series [1] was above 100 µM; at LiGDP-MP (setting [4]), 120 ± 27.5 µM; in series [3] (Leishmania infantum, 72 h), above 100 µM; at hGDP-MP, 79.9 ± 5.9 µM. In addition, the CC50 at 48 h in series [2] was determined as 83.1 ± 7 µM.

In the case of `COc1cc(O)cc(CCCCCCCCC/C=C\CCCCCCCc2cc(O)cc(O)c2)c1` [compound 3, (10′Z)-1-hydroxy-3-methoxy-5-[18′-(3′′,5′′-dihydroxy-phenyl)-10′-octodecen-1′-yl]benzene], the “Selectivity Index” value in series [1] is below 1.2. The half-maximal inhibitory concentration (IC50) was above 25 µM in series [1]; 2.3 µM on LiGDP-MP (setting [4]); 49.5 ± 4.2 µM in series [3]; above 25 µM in series [3] (Leishmania infantum, 72 h); 1.9 ± 0.4 µM on hGDP-MP. The CC50 at 48 h in series [2] worked out at 31.8 ± 1.6 µM.

Take `CCCCCCCCCCCCCCCCOP(=O)([O-])OCC[N+](C)(C)C` [Miltefosine, hexadecylphosphocholine, reference compound]: the IC50 in series [1] is 6.7 ± 1.7 µM; on LiGDP-MP, above 250 µM; in series [3] (Leishmania infantum, 72 h), 1 ± 0.3 µM. On LiGDP-MP (purified enzyme), the “activity on leishmanial GDP-MP (in words)” value is “did not show any activity”.

Consider `CCCC/C=C\CCCCCCCc1cccc(O)c1C(=O)O` [compound 6, (Z)-2-hydroxy-6-(tridec-8-en-1-yl)benzoic acid], for which the “Selectivity Index” value in series [1] was above 2.3. Besides, the IC50 is 42.7 ± 1.3 µM in series [1]; 100 ± 16.6 µM on LiGDP-MP (setting [4]); above 100 µM in series [3] (Leishmania infantum, 72 h); 122 ± 26.1 µM on hGDP-MP. Also, in series [2], the CC50 at 48 h is above 100 µM.

On to `CCCCCCCCCCCc1cccc(O)c1C(=O)O` [compound 5, anagigantic acid], for which the 50% inhibitory concentration (IC50) is above 100 µM in series [1]; 50.6 ± 4.8 µM at LiGDP-MP (setting [4]); above 100 µM in series [3] (Leishmania infantum, 72 h); 38.3 ± 4.1 µM on hGDP-MP. Besides, the CC50 at 48 h in series [2] was above 100 µM.

For `CCCCCCCCCCCCCc1cccc(O)c1C(=O)O` [compound 7, 2-hydroxy-6-tridecylbenzoic acid], the IC50 in series [1] was above 100 µM; at LiGDP-MP (setting [4]) it was 16.9 ± 5 µM; in series [3] (Leishmania infantum, 72 h), above 100 µM; at hGDP-MP, 29 ± 2.5 µM. The CC50 at 48 h in series [2] is above 100 µM.

The values above are taken from publication PMC7999366, “Alkyl-Resorcinol Derivatives as Inhibitors of GDP-Mannose Pyrophosphorylase with Antileishmanial Activities” (Molecules, 2021).
